From patent publication US12552767B2, “3-heteroaryl pyrrolidine and piperidine orexin receptor agonists” (Merck Sharp & Dohme LLC, priority 2020, dated 2026)

Biological target: T1, human OX2R (Homo sapiens, UniProt O43614)
T1 construct: expressed in transfected cells; host or cells: CHO (Chinese hamster ovary) cells, grown under G418 selection
T1 sequence (O43614 1-444): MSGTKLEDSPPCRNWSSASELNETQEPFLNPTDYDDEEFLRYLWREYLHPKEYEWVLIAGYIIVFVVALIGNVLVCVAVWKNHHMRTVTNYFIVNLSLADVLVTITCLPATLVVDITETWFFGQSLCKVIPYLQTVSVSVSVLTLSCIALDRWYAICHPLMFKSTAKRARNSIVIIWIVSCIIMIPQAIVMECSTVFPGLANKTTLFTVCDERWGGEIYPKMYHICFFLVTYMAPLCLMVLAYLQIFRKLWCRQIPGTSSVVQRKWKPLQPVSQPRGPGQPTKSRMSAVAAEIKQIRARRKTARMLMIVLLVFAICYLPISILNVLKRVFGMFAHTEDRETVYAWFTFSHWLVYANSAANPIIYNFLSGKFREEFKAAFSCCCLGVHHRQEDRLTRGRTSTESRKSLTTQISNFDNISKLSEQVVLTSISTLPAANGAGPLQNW
Assay: IP-One (IPOne) orexin receptor agonist assay in CHO cells expressing human OX2R
Type: cell-based
Settings: for EC50: CHO cells expressing human OX2R, IP-One IP-1 detection, 2 hours incubation, four parameter logistic fit, read-out: OX2R Potency, EC50; for % of reference agonist maximal effect: human OX2R, percentage of sample raw value/mean max effect (reference compound at 1 uM with 100% activity)
How it was run: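 CHO cells stably expressing human OX2R were stimulated with compound (10-point ½-log dilutions) for 2 h at 37 °C. IP-1 accumulation was read by HTRF (IP-One, 665/620 nm). EC50 from a four-parameter fit; % effect relative to 1 μM reference agonist control.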

Cc1c[nH]nc1[C@@H]1CCCN(C(=O)C2CC2)[C@@H]1CO[C@H]1CC[C@@H](c2cccc(F)c2)CC1 (relative stereo) [Example 14]
EC50: 65.5 nM
% of reference agonist maximal effect: 99.9%

O=C(NCC1CCC1)N1CCC[C@H](c2cc[nH]n2)[C@@H]1CO[C@H]1CC[C@@H](c2ccccc2)CC1 (relative stereo) [Example 125, (CIS)-N-(cyclobutylmethyl)-2-((((CIS)-4-phenylcyclohexyl)oxy)methyl)-3-(1H-pyrazol-3-yl)piperidine-1-carboxamide]
EC50: 22.4 nM
% of reference agonist maximal effect: 99.1%

COC(=O)N1CCCC(c2ccn[nH]2)C1CO[C@H]1CC[C@@H](c2c(F)ccc(F)c2F)CC1 (some centres unmarked) [Example 29]
EC50: 1360 nM
% of reference agonist maximal effect: 81.4%

COC(=O)COC(=O)N1CCC[C@H](c2cc[nH]n2)[C@@H]1CO[C@H]1CC[C@@H](c2ccccc2)CC1 (relative stereo) [Example 98, 2-methoxy-2-oxoethyl (CIS)-2-((((CIS)-4-phenylcyclohexyl)oxy)methyl)-3-(1H-pyrazol-3-yl)piperidine-1-carboxylate]
EC50: 1020 nM
% of reference agonist maximal effect: 98.7%

O=C(OCC(F)F)N1CCCC(c2ccn[nH]2)C1CO[C@H]1CC[C@@H](c2c(F)ccc(F)c2F)CC1 (stereo partly drawn) [Example 35, 2,2-Difluoroethyl 3-(1H-pyrazol-5-yl)-2-((((CIS)-4-(2,3,6-trifluorophenyl)cyclohexyl)oxy-)methyl)piperidine-1-carboxylate]
EC50: 542 nM
% of reference agonist maximal effect: 97.9%

Cc1cn[nH]c1[C@H]1CCCN(C(=O)OCC(F)F)[C@H]1CO[C@H]1CC[C@@H](c2ccccc2)CC1 (relative stereo) [Example 24, 2,2-difluoroethyl (CIS)-3-(4-methyl-1H-pyrazol-5-yl)-2-((((CIS)-4-phenylcyclohexyl)oxy)methyl)piperidine-1-carboxylate]
EC50: 348 nM
% of reference agonist maximal effect: 100.4%

CC(C)[C@H]1CC[C@@H](OC[C@H]2[C@@H](c3cc[nH]n3)CCCN2C(=O)CCC2CC2)CC1 (relative stereo) [Example 88, 3-cyclopropyl-1-((CIS)-2-((((CIS)-4-isopropylcyclohexyl)oxy)methyl)-3-(1H-pyrazol-3-yl)piperidin-1-yl)propan-1-one]
EC50: 8980 nM
% of reference agonist maximal effect: 79%

COC(=O)N1CCC[C@@H](c2n[nH]cc2C#N)[C@H]1CO[C@H]1CC[C@@H](c2ccccc2)CC1 (single isomer, unassigned) [Example 52]
EC50: > 10000 nM
% of reference agonist maximal effect: 0%

CCNC(=O)N1CCC[C@@H](c2cc[nH]n2)[C@H]1CO[C@H]1CC[C@@H](c2ccccc2)CC1 [Example 19, (2S,3R)-N-ethyl-2-((((CIS)-4-phenylcyclohexyl)oxy)methyl)-3-(1H-pyrazol-3-yl)piperidine-1-carboxamide]
EC50: 4800 nM
% of reference agonist maximal effect: 63.1%

COC(=O)N1CCCC(c2nc(O)sc2Cl)C1COC1CCC(c2ccccc2)CC1 (single isomer, unassigned) [Example 67, Methyl 3-(5-chloro-2-hydroxythiazol-4-yl)-2-(((4-phenylcyclohexyl)oxy)methyl)piperidine-1-carboxylate]
EC50: 227 nM
% of reference agonist maximal effect: 99.9%

COC(=O)N1CCC[C@H](c2cc[nH]n2)[C@@H]1CO[C@H]1CC[C@@H](c2ccccc2)CC1 (relative stereo) [Example 21, methyl (CIS)-2-((((CIS)-4-phenylcyclohexyl)oxy)methyl)-3-(1H-pyrazol-3-yl)piperidine-1-carboxylate]
EC50: 2100 nM
% of reference agonist maximal effect: 79.9%

C#CCOC(=O)N1CCC[C@H](c2cc[nH]n2)[C@@H]1CO[C@H]1CC[C@@H](C(C)C)CC1 (relative stereo) [Example 95, prop-2-yn-1-yl (CIS)-2-((((CIS)-4-isopropylcyclohexyl)oxy)methyl)-3-(1H-pyrazol-3-yl)piperidine-1-carboxylate]
EC50: 8770 nM
% of reference agonist maximal effect: 79.7%

COC(=O)N1CCC[C@H](c2[nH]ncc2C)[C@@H]1CO[C@H]1CC[C@@H](c2ccccc2)CC1 (relative stereo) [Example 23, methyl (CIS)-3-(4-methyl-1H-pyrazol-5-yl)-2-((((CIS)-4-phenylcyclohexyl)oxy)methyl)piperidine-1-carboxylate]
EC50: 211 nM
% of reference agonist maximal effect: 98.6%

C[C@H]1C[C@H]1C(=O)N1CCC[C@H](c2cc[nH]n2)[C@@H]1COC1CCC(c2ccccc2)CC1 (stereo partly drawn) [Example 69, ((CIS)-2-methylcyclopropyl)((2R,3S)-2-((((1s,4S)-4-phenylcyclohexyl)oxy)methyl)-3-(1H-pyrazol-3-yl)piperidin-1-yl)methanone]
EC50: 278 nM
% of reference agonist maximal effect: 99.2%

O=C(OCCF)N1CCC[C@H](c2cc[nH]n2)[C@@H]1CO[C@H]1CC[C@@H](c2ccccc2)CC1 (relative stereo) [Example 111, 2-fluoroethyl (CIS)-2-((((CIS)-4-phenylcyclohexyl)oxy)methyl)-3-(1H-pyrazol-3-yl)piperidine-1-carboxylate]
EC50: 6290 nM
% of reference agonist maximal effect: 78.4%

Cc1c[nH]nc1[C@H]1CCCN(C(=O)OC(C)C)[C@H]1COC1CCN(c2ncccn2)CC1 (relative stereo) [Example 9, Isopropyl (CIS)-3-(4-methyl-1H-pyrazol-3-yl)-2-(((1-(pyrimidin-2-yl)piperidin-4-yl)oxy)methyl)piperidine-1-carboxylate]
EC50: 250 nM
% of reference agonist maximal effect: 100.7%

CC#CCOC(=O)N1CCC[C@H](c2cc[nH]n2)[C@@H]1CO[C@H]1CC[C@@H](c2ccccc2)CC1 (relative stereo) [Example 103, but-2-yn-1-yl (CIS)-2-((((CIS)-4-phenylcyclohexyl)oxy)methyl)-3-(1H-pyrazol-3-yl)piperidine-1-carboxylate]
EC50: 3610 nM
% of reference agonist maximal effect: 73.6%

O=C(CO)N1CCCC(c2ccn[nH]2)C1CO[C@H]1CC[C@@H](c2c(F)ccc(F)c2F)CC1 (relative stereo) [Example 32, 1-(3-(1H-Pyrazol-5-yl)-2-((((CIS)-4-(2,3,6-trifluorophenyl)cyclohexyl)oxy)methyl)piperidin-1-yl)-2-hydroxyethan-1-one]
EC50: 3730 nM
% of reference agonist maximal effect: 86.3%

COC(C)(C)C(=O)N1CCC[C@H](c2cc[nH]n2)[C@@H]1CO[C@H]1CC[C@@H](c2ccccc2)CC1 (relative stereo) [Example 87, 2-methoxy-2-methyl-1-((CIS)-2-((((CIS)-4-phenylcyclohexyl)oxy)methyl)-3-(1H-pyrazol-3-yl)piperidin-1-yl)propan-1-one]
EC50: 8810 nM
% of reference agonist maximal effect: 78.7%

CCC(=O)N1CCC[C@H](c2cc[nH]n2)[C@@H]1CO[C@H]1CC[C@@H](C(C)C)CC1 (relative stereo) [Example 82, 1-((CIS)-2-((((CIS)-4-isopropylcyclohexyl)oxy)methyl)-3-(1H-pyrazol-3-yl)piperidin-1-yl)propan-1-one]
EC50: 5740 nM
% of reference agonist maximal effect: 98.1%

CC(C)(O)C(=O)N1CCC[C@H](c2cc[nH]n2)[C@@H]1CO[C@H]1CC[C@@H](c2ccccc2)CC1 (relative stereo) [Example 77, 2-hydroxy-2-methyl-1-((CIS)-2-((((CIS)-4-phenylcyclohexyl)oxy)methyl)-3-(1H-pyrazol-3-yl)piperidin-1-yl)propan-1-one]
EC50: 4340 nM
% of reference agonist maximal effect: 96.1%

CC(C)COC(=O)N1CCC[C@H](c2cc[nH]n2)[C@@H]1CO[C@H]1CC[C@@H](c2ccccc2)CC1 (relative stereo) [Example 105, isobutyl (CIS)-2-((((CIS)-4-phenylcyclohexyl)oxy)methyl)-3-(1H-pyrazol-3-yl)piperidine-1-carboxylate]
EC50: 3940 nM
% of reference agonist maximal effect: 64.9%

COC(=O)N1CCC[C@H](c2n[nH]cc2C)[C@@H]1COC1CCN(c2ncccn2)CC1 (relative stereo) [Example 6, Methyl (CIS)-3-(4-methyl-1H-pyrazol-3-yl)-2-(((1-(pyrimidin-2-yl)piperidin-4-yl)oxy)methyl)piperidine-1-carboxylate]
EC50: 1270 nM
% of reference agonist maximal effect: 96.6%

O=C(OC(CF)CF)N1CCC[C@H](c2cc[nH]n2)[C@@H]1CO[C@H]1CC[C@@H](c2ccccc2)CC1 (relative stereo) [Example 113, 1,3-difluoropropan-2-yl (CIS)-2-((((CIS)-4-phenylcyclohexyl)oxy)methyl)-3-(1H-pyrazol-3-yl)piperidine-1-carboxylate]
EC50: 6670 nM
% of reference agonist maximal effect: 57.4%

CCNC(=O)N1CCCC(c2[nH]ncc2C)C1COC1CCC(C(C)C)CC1 (single isomer, unassigned) [Example 59, N-ethyl-2-(((4-isopropylcyclohexyl)oxy)methyl)-3-(4-methyl-1H-pyrazol-5-yl)piperidine-1-carboxamide]
EC50: 593 nM
% of reference agonist maximal effect: 98.3%
